Measurements taken from patent US9464056B2, “Fungicidal 4-methylanilino pyrazoles” (E. I. DU PONT DE NEMOURS AND COMPANY, priority 2012, dated 2016).

What was measured:
[1] = tested on: Blumeria graminis f. sp. tritici; assay: Test F: preventive spray on wheat seedlings, Blumeria graminis f. sp. tritici (wheat powdery mildew), visual disease rating; assay type: in vivo; settings: topical, 192 h, 100 = 100% disease control, 0 = no disease control relative to controls
Text: General protocol for preparing test suspensions for Tests A-H: the test compounds were first dissolved in acetone in an amount equal to 3% of the final volume and then suspended at the desired concentration (in ppm) in acetone and purified water (50/50 mix by volume) containing 250 ppm of the surfactant Trem® 014 (polyhydric alcohol esters). The resulting test suspensions were then used in Tests A-F. Spraying a 40 ppm test suspension to the point of run-off on the test plants was the equivalent of a rate of 160 g/ha. Unless otherwise indicated, the rating values indicate a 40 ppm test suspension was used. The test suspension was sprayed to the point of run-off on wheat seedlings. The following day the seedlings were inoculated with a spore dust of Blumeria graminis f. sp. tritici (also known as Erysiphe graminis f. sp. tritici, the causal agent of wheat powdery mildew) and incubated in a growth chamber at 20° C. for 8 days, after which time visual disease ratings were made. Results for Tests A-F are given in Table A. In the Table, a rating of 100 indicates 100% disease control and a rating of 0 indicates no disease control (relative to the controls). A dash (-) indicates no test results.

Septoria tritici = assay: Test D: preventive spray on wheat seedlings, Septoria tritici (wheat leaf blotch), visual disease rating; assay type: in vivo; settings: Zymoseptoria tritici, topical, 504 h, 100 = 100% disease control, 0 = no disease control relative to controls
Text: (§1) General protocol for preparing test suspensions for Tests A-H: the test compounds were first dissolved in acetone in an amount equal to 3% of the final volume and then suspended at the desired concentration (in ppm) in acetone and purified water (50/50 mix by volume) containing 250 ppm of the surfactant Trem® 014 (polyhydric alcohol esters). The resulting test suspensions were then used in Tests A-F. Spraying a 40 ppm test suspension to the point of run-off on the test plants was the equivalent of a rate of 160 g/ha. Unless otherwise indicated, the rating values indicate a 40 ppm test suspension was used. The test suspension was sprayed to the point of run-off on wheat seedlings. The following day the seedlings were inoculated with a spore suspension of Septoria tritici (the causal agent of wheat leaf blotch) and incubated in saturated atmosphere at 24° C. for 48 h, and then moved to a growth chamber at 20° C. for 19 days, after which time visual disease ratings were made. Results for Tests A-F are given in Table A. In the Table, a rating of 100 indicates 100% disease control and a rating of 0 indicates no disease control (relative to the controls). A dash (-) indicates no test results.

[2] = tested on: Puccinia recondita f. sp. tritici; assay: Test E2: preventive spray on wheat seedlings, Puccinia recondita f. sp. tritici (wheat leaf rust), visual disease rating; assay type: in vivo; settings: topical, 192 h, 100 = 100% disease control, 0 = no disease control relative to controls
Text: General protocol for preparing test suspensions for Tests A-H: the test compounds were first dissolved in acetone in an amount equal to 3% of the final volume and then suspended at the desired concentration (in ppm) in acetone and purified water (50/50 mix by volume) containing 250 ppm of the surfactant Trem® 014 (polyhydric alcohol esters). The resulting test suspensions were then used in Tests A-F. Spraying a 40 ppm test suspension to the point of run-off on the test plants was the equivalent of a rate of 160 g/ha. Unless otherwise indicated, the rating values indicate a 40 ppm test suspension was used. The test suspension was sprayed to the point of run-off on wheat seedlings. The following day the seedlings were inoculated with a spore suspension of Puccinia recondita f. sp. tritici (the causal agent of wheat leaf rust) and incubated in a saturated atmosphere at 20° C. for 24 h, and then moved to a growth chamber at 20° C. for 7 days, after which time visual disease ratings were made. Results for Tests A-F are given in Table A. In the Table, a rating of 100 indicates 100% disease control and a rating of 0 indicates no disease control (relative to the controls). A dash (-) indicates no test results.

Botrytis cinerea = assay: Test A: preventive spray on tomato seedlings, Botrytis cinerea (tomato Botrytis), visual disease rating; assay type: in vivo; settings: 100 = 100% disease control, 0 = no disease control relative to controls
Text: as §1, with “tomato” for “wheat”, “Botrytis cinerea” for “Septoria tritici”, “tomato Botrytis)” for “wheat leaf blotch)”, “20°” for “24°”, “27°” for “20°”, “3” for “19”

Septoria nodorum = assay: Test C: preventive spray on wheat seedlings, Septoria nodorum (Septoria glume blotch), visual disease rating; assay type: in vivo; settings: Parastagonospora nodorum, topical, 264 h, 100 = 100% disease control, 0 = no disease control relative to controls
Text: General protocol for preparing test suspensions for Tests A-H: the test compounds were first dissolved in acetone in an amount equal to 3% of the final volume and then suspended at the desired concentration (in ppm) in acetone and purified water (50/50 mix by volume) containing 250 ppm of the surfactant Trem® 014 (polyhydric alcohol esters). The resulting test suspensions were then used in Tests A-F. Spraying a 40 ppm test suspension to the point of run-off on the test plants was the equivalent of a rate of 160 g/ha. Unless otherwise indicated, the rating values indicate a 40 ppm test suspension was used. The test suspension was sprayed to the point of run-off on wheat seedlings. The following day the seedlings were inoculated with a spore suspension of Septoria nodorum (the causal agent of Septoria glume blotch) and incubated in a saturated atmosphere at 20° C. for 48 h, and then moved to a growth chamber at 20° C. for 9 days, after which time visual disease ratings were made. Results for Tests A-F are given in Table A. In the Table, a rating of 100 indicates 100% disease control and a rating of 0 indicates no disease control (relative to the controls). A dash (-) indicates no test results.

| melting point [°C] | SMILES | pest or weed control at 40 µg/mL [1] [%] | pest or weed control at 40 µg/mL (Septoria tritici) [%] | pest or weed control at 40 µg/mL [2] [%] | pest or weed control at 40 µg/mL (Botrytis cinerea) [%] | pest or weed control at 40 µg/mL (Septoria nodorum) [%] |
| --- | --- | --- | --- | --- | --- | --- |
| 114 to 116 | Cc1cc(F)c(Nc2c(-c3ccc(F)cc3Br)c(C)nn2C)c(F)c1 [Compound 14, 4-(2-bromo-4-fluorophenyl)-N-(2,6-difluoro-4-methylphenyl)-1,3-dimethyl-1H-pyrazol-5-amine] | 100 | 100 | 100 | 100 | 86 |
| 147 to 149 | Cc1cc(Cl)c(Nc2c(-c3ccc(F)cc3F)c(C)nn2C)c(Cl)c1 [Compound 16, N-(2,6-dichloro-4-methylphenyl)-4-(2,4-difluorophenyl)-1,3-dimethyl-1H-pyrazol-5-amine] | 99 | 73 | 100 | 100 | 97 |
| 191 to 192 | Cc1cc(Cl)c(Nc2c(-c3ccc(F)cc3Br)c(C)nn2C)c(Cl)c1 [Compound 15, 4-(2-bromo-4-fluorophenyl)-N-(2,6-dichloro-4-methylphenyl)-1,3-dimethyl-1H-pyrazol-5-amine] | 99 | 100 | 100 | 100 | 0 |
| 145 to 146 | Cc1cc(F)c(Nc2c(-c3ccc(F)cc3Br)c(C)nn2C)c(Cl)c1 [Compound 11, 4-(2-bromo-4-fluorophenyl)-N-(2-chloro-6-fluoro-4-methylphenyl)-1,3-dimethyl-1H-pyrazol-5-amine] | – | – | – | – | – |
| 188 to 189 | Cc1cc(Cl)c(Nc2c(-c3ccc(F)cc3Cl)c(C)nn2C)c(Cl)c1 [Compound 13, 4-(2-chloro-4-fluorophenyl)-N-(2,6-dichloro-4-methylphenyl)-1,3-dimethyl-1H-pyrazol-5-amine] | 100 | 100 | 100 | 100 | 0 |
| 121 to 123 | Cc1cc(F)c(Nc2c(-c3ccc(F)cc3Cl)c(C)nn2C)c(F)c1 [Compound 10, 4-(2-chloro-4-fluorophenyl)-N-(2,6-difluoro-4-methylphenyl)-1,3-dimethyl-1H-pyrazol-5-amine] | 100 | 100 | 100 | 100 | 90 |
| 156 to 158 | Cc1cc(F)c(Nc2c(-c3ccc(F)cc3F)c(C)nn2C)c(F)c1 [Compound 9, N-(2,6-difluoro-4-methylphenyl)-4-(2,4-difluorophenyl)-1,3-dimethyl-1H-pyrazol-5-amine] | 100 | 100 | 96 | 100 | 96 |

The remaining lines, values behind:

| SMILES | melting point [°C] | pest or weed control at 40 µg/mL [1] [%] | pest or weed control at 40 µg/mL (Septoria tritici) [%] | pest or weed control at 40 µg/mL [2] [%] | pest or weed control at 40 µg/mL (Botrytis cinerea) [%] | pest or weed control at 40 µg/mL (Septoria nodorum) [%] |
| --- | --- | --- | --- | --- | --- | --- |
| Cc1cc(F)c(Nc2c(-c3ccc(F)cc3F)c(C)nn2C)c(Br)c1 [Compound 8, N-(2-bromo-6-fluoro-4-methylphenyl)-4-(2,4-difluorophenyl)-1,3-dimethyl-1H-pyrazol-5-amine] | 143 to 144 | 100 | 100 | 100 | 100 | 97 |
| Cc1ccc(Nc2c(-c3ccc(F)cc3Cl)c(C)nn2C)c(Br)c1 [Compound 3, N-(2-bromo-4-methylphenyl)-4-(2-chloro-4-fluorophenyl)-1,3-dimethyl-1H-pyrazol-5-amine] | – | 96 | 100 | 99 | 99 | 0 |
| Cc1ccc(Nc2c(-c3ccc(F)cc3Cl)c(C)nn2C)c(Cl)c1 [Compound 2, 4-(2-chloro-4-fluorophenyl)-N-(2-chloro-4-methylphenyl)-1,3-dimethyl-1H-pyrazol-5-amine] | – | 97 | 100 | 95 | 100 | 0 |
| Cc1cc(F)c(Nc2c(-c3ccc(F)cc3Cl)c(C)nn2C)c(Cl)c1 [Compound 12, N-(2-chloro-6-fluoro-4-methylphenyl)-4-(2-chloro-4-fluorophenyl)-1,3-dimethyl-1H-pyrazol-5-amine] | 137 to 138 | – | – | – | – | – |
| Cc1ccc(Nc2c(-c3ccc(F)cc3Cl)c(C)nn2C)c(F)c1 [Compound 6, 4-(2-chloro-4-fluorophenyl)-N-(2-fluoro-4-methylphenyl)-1,3-dimethyl-1H-pyrazol-5-amine] | – | 100 | 100 | 0 | 99 | 0 |
| Cc1ccc(Nc2c(-c3ccc(F)cc3Br)c(C)nn2C)c(Cl)c1 [Compound 4, 4-(2-bromo-4-fluorophenyl)-N-(2-chloro-4-methylphenyl)-1,3-dimethyl-1H-pyrazol-5-amine] | – | 97 | 100 | 97 | 100 | 0 |
| Cc1ccc(Nc2c(-c3ccc(F)cc3Br)c(C)nn2C)c(Br)c1 [Compound 5, 4-(2-bromo-4-fluorophenyl)-N-(2-bromo-4-methylphenyl)-1,3-dimethyl-1H-pyrazol-5-amine] | – | 97 | 100 | 97 | 99 | 0 |
